{"source": "paper PMC11192711", "about": "“Automated radiosynthesis and preclinical evaluation of two new PSMA-617 derivatives radiolabelled via [^18F]AlF^2+ method” (EJNMMI Radiopharmacy and Chemistry, 2024)", "tested_on": "LNCaP tumour-bearing NSG mice", "assay": "PET/CT in vivo biodistribution and tumour uptake in subcutaneous LNCaP prostate cancer xenograft model", "details": "n = 4; for Bone (SUV mean) / Brain (SUV mean) / Colon (SUV mean) / Gall bladder (SUV mean) / Heart (SUV mean) / Kidney (SUV mean) / Liver (SUV mean) / Lung (SUV mean) / Muscle (SUV mean) / Salivary gland (SUV mean) / Small instestine (SUV mean): LNCaP NSG male mice, i.v., PET/CT; for ratio between tumour and muscle (tumour SUV max/muscle SUV mean) / uptake in the tumour expressed as SUV max: LNCaP tumour, NSG mice", "description": "The uptake of [^18F]F-PSMA-1007 and [^18F]F-PSMA-617-NODA ([^18F]1) was compared in vivo in a xenograft model of human prostate cancer obtained using LNCaP cells which are PSMA positive, as confirmed by real time PCR-analysis (Additional file 1: S69A). LNCaP tumour-bearing NSG mice were injected i.v. with either [^18F]F-PSMA-1007 or [^18F]F-PSMA-617-NODA (~ 3.8 MBq/mouse, ~ 20 pmol for [^18F]F-PSMA-1007 and ~ 50 pmol [^18F]1). Radiotracer uptake was assessed after 10, 60 and 120 min post injection by whole-body PET/CT acquisitions.\nTotal body biodistribution of [^18F]F-PSMA-1007, [^18F]F-PSMA-617-NODA and [^18F]F-PSMA-617-RESCA was evaluated in vivo using imaging PET/CT. [^18F]F-PSMA-617-NODA uptake was compared to that of the [^18F]F-PSMA-1007 in a PSMA positive prostate tumour xenograft model (LNCaP). [^18F]F-PSMA-617-NODA and [^18F]F-PSMA-617-RESCA uptake were also evaluated using an orthotopic glioma model (Gli36ΔEGFR).\nAnimal experiments were carried out in compliance with institutional guidelines for the care and the use of experimental animals, which have been authorized by the Italian Ministry of Health (n° 378/2019-PR and 817/2021-PR). The animals were housed at constant temperature (23 °C) and relative humidity (40%) under a regular light/dark cycle with food and water available ad libitum. Seven to eight weeks old male NSG mice (Charles River Laboratories Italia s.r.l., Italy) were subcutaneously inoculated in the right flank with 5 × 10^6 of PSMA‐positive human prostate cancer cells (LNCaP) suspended in matrigel (1: 1, total volume 200 ul). The growth tumour was monitored periodically with calliper and tumour volume was calculated using the following formula: […]\nWhen the tumour volume was about 230.8 ± 60.3 mm^3 (approximately 15 days after tumour cells inoculation), 4 animals performed an in vivo biodistribution of [^18F]F-PSMA-1007 and [^18F]F-PSMA-617-NODA, on successive but non-consecutive days, using PET/CT.\nMice were injected into a tail vein with 3.8 ± 0.1 MBq of [^18F]F-PSMA-1007, 4.0 ± 0.2 MBq of [^18F]F-PSMA-617-NODA ([^18F]1) and 3.8 ± 0.1 MBq of [^18F]F-PSMA-617-RESCA ([^18F]2), respectively.\nTotal body PET/CT acquisitions were performed using PET/CT tomographs dedicated to small animals, X-ß-CUBE (Molecubes, Gent, Belgium) after 10, 60 and 120 min from tracer injection. Each acquisition lasted 30 min and mice were maintained anesthetized (4% isoflurane in induction and 2% in maintenance in air) during acquisition.\nImage quantification analysis was performed with PMOD 4.105 software (Zurich, Switzerland). Volumes of interest (VOIs) were drawn on peripheral organs (tumour, thoracic muscle, heart, liver, kidney, salivary glands, lung, small intestine, colon, bone, gall bladder) and on the healthy brain using CT images. For the glioma model, PET/CT images were co-registered to MRI images and two different VOIs were defined: (1) a control VOI covering the healthy left striatum (volume 4 mm^3) was drawn on the axial MR images, adjusted on the other imaging planes and then copied on the PET images of each mouse; (2) a second glioma-covering VOI was drawn in the tumour-affected brain hemisphere and centered on mice lesions.\nFor quantification, Standardized Uptake Value (SUV) was calculated according to the formula:\nSUV = organ concentration activity [MBq/g]/(injected activity [MBq]/animal weight [g]).\nThe data were expressed as standardized-uptake-values (SUVmean and SUVmax) and as tumour-to-muscle (T/M) and tumour-to-blood (T/B) ratio in PCa model and as tumour-to-contralateral (T/Cl) ratio in glioma model.", "data": [{"smiles": "O=C(O)CC[C@H](NC(=O)N[C@@H](CCCCNC(=O)[C@H](Cc1ccc2ccccc2c1)NC(=O)c1ccc(CNC(=O)[C@H](CCC(=O)O)NC(=O)[C@H](CCC(=O)O)NC(=O)c2ccc([18F])nc2)cc1)C(=O)O)C(=O)O", "note": "[[^18F]F-PSMA-1007, reference compound]", "values": [{"measurement": "Bone (SUV mean)", "setting": "10 min p.i.", "result": "0.36 ± 0.09"}, {"measurement": "Brain (SUV mean)", "setting": "10 min p.i.", "result": "0.12 ± 0.02"}, {"measurement": "Colon (SUV mean)", "setting": "10 min p.i.", "result": "0.35 ± 0.27"}, {"measurement": "Gall bladder (SUV mean)", "setting": "10 min p.i.", "result": "0.99 ± 0.40"}, {"measurement": "Heart (SUV mean)", "setting": "10 min p.i.", "result": "0.38 ± 0.09"}, {"measurement": "Kidney (SUV mean)", "setting": "10 min p.i.", "result": "9.55 ± 2.63"}, {"measurement": "Liver (SUV mean)", "setting": "10 min p.i.", "result": "0.50 ± 0.04"}, {"measurement": "Lung (SUV mean)", "setting": "10 min p.i.", "result": "0.46 ± 0.09"}, {"measurement": "Muscle (SUV mean)", "setting": "10 min p.i.", "result": "0.23 ± 0.03"}, {"measurement": "Salivary gland (SUV mean)", "setting": "10 min p.i.", "result": "1.40 ± 0.25"}, {"measurement": "Small instestine (SUV mean)", "setting": "10 min p.i.", "result": "0.60 ± 0.05"}, {"measurement": "Bone (SUV mean)", "setting": "60 min p.i.", "result": "0.26 ± 0.09"}, {"measurement": "Brain (SUV mean)", "setting": "60 min p.i.", "result": "0.09 ± 0.03"}, {"measurement": "Colon (SUV mean)", "setting": "60 min p.i.", "result": "0.28 ± 0.14"}, {"measurement": "Gall bladder (SUV mean)", "setting": "60 min p.i.", "result": "1.02 ± 0.43"}, {"measurement": "Heart (SUV mean)", "setting": "60 min p.i.", "result": "0.28 ± 0.06"}, {"measurement": "Kidney (SUV mean)", "setting": "60 min p.i.", "result": "12.04 ± 2.49"}, {"measurement": "Liver (SUV mean)", "setting": "60 min p.i.", "result": "0.33 ± 0.06"}, {"measurement": "Lung (SUV mean)", "setting": "60 min p.i.", "result": "0.40 ± 0.16"}, {"measurement": "Muscle (SUV mean)", "setting": "60 min p.i.", "result": "0.20 ± 0.04"}, {"measurement": "Salivary gland (SUV mean)", "setting": "60 min p.i.", "result": "1.40 ± 0.20"}, {"measurement": "Small instestine (SUV mean)", "setting": "60 min p.i.", "result": "0.49 ± 0.12"}, {"measurement": "Bone (SUV mean)", "setting": "120 min p.i.", "result": "0.21 ± 0.08"}, {"measurement": "Brain (SUV mean)", "setting": "120 min p.i.", "result": "0.10 ± 0.03"}, {"measurement": "Colon (SUV mean)", "setting": "120 min p.i.", "result": "0.26 ± 0.08"}, {"measurement": "Gall bladder (SUV mean)", "setting": "120 min p.i.", "result": "0.75 ± 0.48"}, {"measurement": "Heart (SUV mean)", "setting": "120 min p.i.", "result": "0.24 ± 0.03"}, {"measurement": "Kidney (SUV mean)", "setting": "120 min p.i.", "result": "14.49 ± 1.41"}, {"measurement": "Liver (SUV mean)", "setting": "120 min p.i.", "result": "0.21 ± 0.02"}, {"measurement": "Lung (SUV mean)", "setting": "120 min p.i.", "result": "0.31 ± 0.07"}, {"measurement": "Muscle (SUV mean)", "setting": "120 min p.i.", "result": "0.15 ± 0.05"}, {"measurement": "Salivary gland (SUV mean)", "setting": "120 min p.i.", "result": "1.58 ± 0.12"}, {"measurement": "Small instestine (SUV mean)", "setting": "120 min p.i.", "result": "0.30 ± 0.07"}, {"measurement": "ratio between tumour and muscle (tumour SUV max/muscle SUV mean)", "setting": "60 min p.i.", "result": "7.46 ± 1.55"}, {"measurement": "uptake in the tumour expressed as SUV max", "setting": "60 min p.i.", "result": "1.48 ± 0.29"}, {"measurement": "ratio between tumour and muscle (tumour SUV max/muscle SUV mean)", "setting": "120 min p.i.", "result": "11.99 ± 6.16"}, {"measurement": "uptake in the tumour expressed as SUV max", "setting": "120 min p.i.", "result": "1.60 ± 0.44"}]}]}
